These results are taken from paper PMC3894558, “Chemical signatures and new drug targets for gametocytocidal drug development” (Scientific Reports, 2014).

This assay relates to P. falciparum 3D7 gametocytes. In words: alamarBlue gametocyte viability assay, strain 3D7. The format is cell-based, Plasmodium falciparum. The following applies: Malaria Box; for Max Resp: DMSO set at 0%, 100 nM epoxomicin set at -100%; for Curve Class / IC50: stages III-V 3D7 gametocytes; for IC50: 11 concentrations, 1:3 dilution.

Like-named read-outs stand apart in the source and are kept apart here.

For `CN(C)c1ccc(C=Cc2nc(=O)c3ccccc3o2)cc1` [MMV006309], the “Max Resp” value was 2%, the “Curve Class” value was 4 and the half-maximal inhibitory concentration (IC50) result is given as “Inactive”.
The matching figures for `COc1cccc(C(=O)Nc2ccc(-c3nc4ccccc4[nH]3)cc2)c1` [MMV019762]: -1%, 4 and “Inactive”.
For `CC1CC2=C(CC1CNCCCN(C)C)C(C)(C)CCC2` (stereo not drawn) [MMV665830], the “Max Resp” value is -88% and the “Curve Class” value is reported as -1.1. For the same compound, the IC50 (read-out: IC50) amounted to 1.66 µM.
The matching figures for `CCCCCCc1cc2cc(-c3nc4ccccc4[nH]3)c(=Nc3ccccc3C)oc2cc1O` [MMV666597]: -27%, -1.4 and 2.09 µM.
The matching figures for `CCOC(=O)C1CCN(C(=O)CN2C(=O)c3ccccc3C2c2c[nH]c3ccccc23)CC1` (stereo not drawn) [MMV011576]: -98%, -1.1 and 3.72 µM.
The matching figures for `Cl.Oc1ccccc1CNCC12CC3CC(CC(C3)C1)C2` [MMV020788]: -43%, -1.2 and 0.105 µM.
For the compound `CC(Oc1ccc(NC(=O)c2cccs2)cc1)C(=O)c1ccc(Cl)cc1` (stereo not drawn) [MMV665886], the “Max Resp” value was 44% and the “Curve Class” value was found to be 2.2. The IC50 (read-out: IC50) worked out at 18.7 µM.
The matching figures for `CCOc1cc2c(cc1OCC)C(c1cc(Cl)c(O)c(OCC)c1)NCC2` (stereo not drawn) [MMV000481]: -81%, -1.1 and 5.26 µM.
In the case of `O=C(CSc1ccc2nnc(-c3cccc(F)c3)n2n1)Nc1ccc2c(c1)OCO2` [MMV665918], the “Max Resp” value was -14%, the “Curve Class” value was found to be 4 and the concentration for half-maximal inhibition (IC50) result is recorded as “Inactive”.
Consider `CCOc1cccc(C(=O)Nc2ccc(-c3nc4ccccc4[nH]3)cc2)c1` [MMV019202], for which the “Max Resp” value was -23%, the “Curve Class” value was 4 and the IC50 result is “Inactive”.
On to `CCCCCn1c(=N)n(CC(O)COc2cccc(C)c2)c2ccccc21.Cl` (stereo not drawn) [MMV000444], for which the “Max Resp” value is recorded as -107% and the “Curve Class” value is -1.1. Under “read-out: IC50”, the IC50 worked out at 8.33 µM.
Regarding `COc1cc(C(=O)Nc2ccc(-c3nc4ccccc4[nH]3)cc2)cc(OC)c1OC` [MMV665898], the “Max Resp” value is -26%, the “Curve Class” value turned out to be 4 and the IC50 result is on record as “Inactive”.
On to `O=C(Nc1cccc(-c2nc3ccccc3[nH]2)c1)c1cccc(NC(=O)c2ccco2)c1` [MMV665883], for which the “Max Resp” value is reported as -25%, the “Curve Class” value stood at 4 and the IC50 entry is given as “Inactive”.
In the case of `Cc1sc2ncnc(Sc3nc4ccccc4[nH]3)c2c1C` [MMV019266], the “Max Resp” value is on record as -72% and the “Curve Class” value is -2.2. For the same compound, the half-inhibitory concentration (IC50) (read-out: IC50) was 11.8 µM.
On to `Brc1ccc(Nc2nc3ccccc3nc2Nc2ccc(Br)cc2)cc1` [MMV007224], for which the “Max Resp” value is -96% and the “Curve Class” value is given as -2.1. In addition, the IC50 (read-out: IC50) came to 20.9 µM.
The matching figures for `CC(C)OCc1cc(CN2CCN(c3cccc(Cl)c3)CC2)c(O)c2ncccc12` [MMV000788]: -97%, -1.1 and 8.33 µM.
The matching figures for `Cc1ccc(Cl)cc1N1CCN(CCCNC(=O)C2CCN(c3nc4ccccc4[nH]3)CC2)CC1` [MMV019746]: -74%, -2.2 and 29.6 µM.
Take `CCCCOC(=O)c1ccc(Nc2cc(C)nc3ccc(OC)cc23)cc1` [MMV665797]: the “Max Resp” value is -47%, the “Curve Class” value is -2.2 and the IC50 result is listed as “Inactive”.
The matching figures for `O=C(c1ccccc1F)N(Cc1ccc(Cl)cc1)c1ccccn1` [MMV665899]: -26%, 4 and “Inactive”.
